Data as given in US20250154686A1, “COMPOUND LIBRARY” (CHUGAI SEIYAKU KABUSHIKI KAISHA, priority 2021, published 2025).

Molecular target: T1, Bcl-2 protein (Recombinant Human Bcl-2 Protein) (Homo sapiens, UniProt P10415)
T1 construct: purchased Novus Biologicals NBP2-34889
Assay: AS-MS evaluation of binding of the Example 4 mixture library (1200 compounds/well) to Bcl-2, ASMS ratio (%)
Details: AS-MS, Example 4 mixture library; for ASMS ratio (%) n = 1: Bcl-2, replicate n = 1; for ASMS ratio (%) n = 2: Bcl-2, replicate n = 2
Outline: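 Binding is read as an ASMS ratio from reverse-phase LC/MS peak data. Samples: 1200 compounds at 20 nM each with 20 μM Bcl-2, 1 h at 23 °C in the dark, then P-2 SEC and organic-solvent extraction; references lacked protein, with and without SEC.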

T1 sequence (P10415 whole entry): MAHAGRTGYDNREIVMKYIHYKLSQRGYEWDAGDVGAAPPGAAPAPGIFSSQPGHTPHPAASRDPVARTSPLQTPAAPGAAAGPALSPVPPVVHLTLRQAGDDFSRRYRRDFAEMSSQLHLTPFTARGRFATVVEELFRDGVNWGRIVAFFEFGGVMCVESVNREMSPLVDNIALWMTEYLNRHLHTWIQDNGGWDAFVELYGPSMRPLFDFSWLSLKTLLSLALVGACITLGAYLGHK

| Structure (SMILES) | ASMS ratio (%) n = 1 [%] | ASMS ratio (%) n = 2 [%] |
| --- | --- | --- |
| CCOc1cncc(-c2ccccc2CCC(=O)N2CCN(c3ccc(C(=O)NS(=O)(=O)CCC(F)(F)F)cc3)CC2)c1 [Compound B2N034-01, 4-[4-[3-[2-(5-Ethoxypyridin-3-yl)phenyl]propanoyl]piperazin-1-yl]-N-(3,3,3-trifluoropropylsulfonyl)benzamide] | −0.2 | 1.0 |
| CCOc1cccc(-c2ccc(C(=O)N3CCN(c4ccc(C(=O)NS(=O)(=O)CCC(F)(F)F)cc4)CC3)c3ccccc23)c1 [Compound B2N035-01, 4-[4-[4-(3-Ethoxyphenyl)naphthalene-1-carbonyl]piperazin-1-yl]-N-(3,3,3-trifluoropropylsulfonyl)benzamide] | 0.0 | 0.0 |
| CCOc1cncc(-c2ccc(C(=O)N3CCN(c4ccc(C(=O)NS(=O)(=O)CCC(F)(F)F)cc4)CC3)c3ccccc23)c1 [Compound B2N036-01, 4-[4-[4-(5-Ethoxypyridin-3-yl)naphthalene-1-carbonyl]piperazin-1-yl]-N-(3,3,3-trifluoropropylsulfonyl)benzamide] | 0.0 | 0.4 |
| CCOc1cccc(-c2cc(C(=O)N3CCN(c4ccc(C(=O)NS(=O)(=O)CCC(F)(F)F)cc4)CC3)cc(C(C)(C)C)c2)c1 [Compound B2N037-01, 4-[4-[3-tert-Butyl-5-(3-ethoxyphenyl)benzoyl]piperazin-1-yl]-N-(3,3,3-trifluoropropylsulfonyl)benzamide] | 0.0 | 0.0 |
| CCOc1cncc(-c2cc(C(=O)N3CCN(c4ccc(C(=O)NS(=O)(=O)CCC(F)(F)F)cc4)CC3)cc(C(C)(C)C)c2)c1 [Compound B2N038-01, 4-[4-[3-tert-Butyl-5-(5-ethoxypyridin-3-yl)benzoyl]piperazin-1-yl]-N-(3,3,3-trifluoropropylsulfonyl)benzamide] | 0.0 | 0.0 |
| CCOc1cncc(-c2cc(C(=O)N3CCN(c4ccc(C(=O)NS(=O)(=O)CCC(F)(F)F)cc4)CC3)cc(C(F)(F)F)c2)c1 [Compound B2N040-01, 4-[4-[3-(5-Ethoxypyridin-3-yl)-5-(trifluoromethyl)benzoyl]piperazin-1-yl]-N-(3,3,3-trifluoropropylsulfonyl)benzamide] | 0.0 | 0.0 |
| CCOc1cncc(C#Cc2cc(C(=O)N3CCN(c4ccc(C(=O)NS(=O)(=O)CCC(F)(F)F)cc4)CC3)cc(C(F)(F)F)c2)c1 [Compound B2N042-01, 4-[4-[3-[2-(5-Ethoxypyridin-3-yl)ethynyl]-5-(trifluoromethyl)benzoyl]piperazin-1-yl]-N-(3,3,3-trifluoropropylsulfonyl)benzamide] | 0.0 | 0.0 |
| CCOc1cccc(-c2cnn(-c3cc(C(=O)N4CCN(c5ccc(C(=O)NS(=O)(=O)CCC(F)(F)F)cc5)CC4)cc(C(F)(F)F)c3)c2)c1 [Compound B2N043-01, 4-[4-[3-[4-(3-Ethoxyphenyl)pyrazol-1-yl]-5-(trifluoromethyl)benzoyl]piperazin-1-yl]-N-(3,3,3-trifluoropropylsulfonyl)benzamide] | −1.4 | 0.1 |
| CCOc1cncc(-c2cnn(-c3cc(C(=O)N4CCN(c5ccc(C(=O)NS(=O)(=O)CCC(F)(F)F)cc5)CC4)cc(C(F)(F)F)c3)c2)c1 [Compound B2N044-01, 4-[4-[3-[4-(5-Ethoxypyridin-3-yl)pyrazol-1-yl]-5-(trifluoromethyl)benzoyl]piperazin-1-yl]-N-(3,3,3-trifluoropropylsulfonyl)benzamide] | 0.2 | 1.4 |
| CCOc1cccc(-c2ccccc2CN2CCN(c3ccc(C(=O)NS(=O)(=O)CCC(F)(F)F)cc3)CC2)c1 [Compound B2N045-01, 4-[4-[[2-(3-Ethoxyphenyl)phenyl]methyl]piperazin-1-yl]-N-(3,3,3-trifluoropropylsulfonyl)benzamide] | 0.0 | 0.1 |
| CCOc1cncc(-c2ccccc2CN2CCN(c3ccc(C(=O)NS(=O)(=O)CCC(F)(F)F)cc3)CC2)c1 [Compound B2N046-01, 4-[4-[[2-(5-Ethoxypyridin-3-yl)phenyl]methyl]piperazin-1-yl]-N-(3,3,3-trifluoropropylsulfonyl)benzamide] | 0.0 | −1.2 |
| CCOc1cccc(-c2ccc(CN3CCN(c4ccc(C(=O)NS(=O)(=O)CCC(F)(F)F)cc4)CC3)cc2C)c1 [Compound B2N047-01, 4-[4-[[4-(3-Ethoxyphenyl)-3-methylphenyl]methyl]piperazin-1-yl]-N-(3,3,3-trifluoropropylsulfonyl)benzamide] | 0.0 | 0.0 |
| CCOc1cncc(-c2ccc(CN3CCN(c4ccc(C(=O)NS(=O)(=O)CCC(F)(F)F)cc4)CC3)cc2C)c1 [Compound B2N048-01, 4-[4-[[4-(5-Ethoxypyridin-3-yl)-3-methylphenyl]methyl]piperazin-1-yl]-N-(3,3,3-trifluoropropylsulfonyl)benzamide] | 0.0 | −0.7 |
| CCOc1cccc(-c2ccc(CN3CCN(c4ccc(C(=O)NS(=O)(=O)CCC(F)(F)F)cc4)CC3)c(CC)c2)c1 [Compound B2N049-01, 4-[4-[[4-(3-Ethoxyphenyl)-2-ethylphenyl]methyl]piperazin-1-yl]-N-(3,3,3-trifluoropropylsulfonyl)benzamide] | 0.0 | 0.0 |
| CCOc1cncc(-c2ccc(CN3CCN(c4ccc(C(=O)NS(=O)(=O)CCC(F)(F)F)cc4)CC3)c(CC)c2)c1 [Compound B2N050-01] | 0.0 |  |
| CCOc1cccc(-c2ccc(CN3CCN(c4ccc(C(=O)NS(=O)(=O)CCC(F)(F)F)cc4)CC3)cc2F)c1 [Compound B2N051-01, 4-[4-[[4-(3-Ethoxyphenyl)-3-fluorophenyl]methyl]piperazin-1-yl]-N-(3,3,3-trifluoropropylsulfonyl)benzamide] | 0.0 | 0.0 |
| CCOc1cncc(-c2ccc(CN3CCN(c4ccc(C(=O)NS(=O)(=O)CCC(F)(F)F)cc4)CC3)cc2F)c1 [Compound B2N052-01] | 0.0 | −0.5 |
| CCOc1cccc(-c2ccc(CN3CCN(c4ccc(C(=O)NS(=O)(=O)CCC(F)(F)F)cc4)CC3)c(OC)c2)c1 [Compound B2N053-01, 4-[4-[[4-(3-Ethoxyphenyl)-2-methoxyphenyl]methyl]piperazin-1-yl]-N-(3,3,3-trifluoropropylsulfonyl)benzamide] | 0.0 | 1.4 |
| CCOc1cncc(-c2ccc(CN3CCN(c4ccc(C(=O)NS(=O)(=O)CCC(F)(F)F)cc4)CC3)c(OC)c2)c1 [Compound B2N054-01, 4-[4-[[4-(5-Ethoxypyridin-3-yl)-2-methoxyphenyl]methyl]piperazin-1-yl]-N-(3,3,3-trifluoropropylsulfonyl)benzamide] | 0.0 | 0.0 |
| CCOc1cccc(-c2cc(CN3CCN(c4ccc(C(=O)NS(=O)(=O)CCC(F)(F)F)cc4)CC3)cc(OCC)c2)c1 [Compound B2N055-01] | 0.0 | 0.0 |
| CCOc1cncc(-c2cc(CN3CCN(c4ccc(C(=O)NS(=O)(=O)CCC(F)(F)F)cc4)CC3)cc(OCC)c2)c1 [Compound B2N056-01, 4-[4-[[3-Ethoxy-5-(5-ethoxypyridin-3-yl)phenyl]methyl]piperazin-1-yl]-N-(3,3,3-trifluoropropylsulfonyl)benzamide] | 0.0 | 0.0 |
| CCOc1cccc(-c2cc(CN3CCN(c4ccc(C(=O)NS(=O)(=O)CCC(F)(F)F)cc4)CC3)cc(OC(C)C)c2)c1 [Compound B2N057-01, 4-[4-[[3-(3-Ethoxyphenyl)-5-propan-2-yloxyphenyl]methyl]piperazin-1-yl]-N-(3,3,3-trifluoropropylsulfonyl)benzamide] | 0.0 | −1.8 |
| CCOc1cncc(-c2cc(CN3CCN(c4ccc(C(=O)NS(=O)(=O)CCC(F)(F)F)cc4)CC3)cc(OC(C)C)c2)c1 [Compound B2N058-01] | 0.0 | 0.0 |
| CCOc1cccc(-c2cc(OC)c(CN3CCN(c4ccc(C(=O)NS(=O)(=O)CCC(F)(F)F)cc4)CC3)c(OC)c2)c1 [Compound B2N059-01, 4-[4-[[4-(3-Ethoxyphenyl)-2,6-dimethoxyphenyl]methyl]piperazin-1-yl]-N-(3,3,3-trifluoropropylsulfonyl)benzamide] | 0.0 | 0.0 |
| CCOc1cncc(-c2cc(OC)c(CN3CCN(c4ccc(C(=O)NS(=O)(=O)CCC(F)(F)F)cc4)CC3)c(OC)c2)c1 [Compound B2N060-01, 4-[4-[[4-(5-Ethoxypyridin-3-yl)-2,6-dimethoxyphenyl]methyl]piperazin-1-yl]-N-(3,3,3-trifluoropropylsulfonyl)benzamide] | 0.0 | 0.0 |
| CCOc1cccc(-c2cc(CN3CCN(c4ccc(C(=O)NS(=O)(=O)CCC(F)(F)F)cc4)CC3)cc(C(F)(F)F)c2)c1 [Compound B2N061-01] | 0.0 | 0.0 |
| CCOc1cncc(-c2cc(CN3CCN(c4ccc(C(=O)NS(=O)(=O)CCC(F)(F)F)cc4)CC3)cc(C(F)(F)F)c2)c1 [Compound B2N062-01, 4-[4-[[3-(5-Ethoxypyridin-3-yl)-5-(trifluoromethyl)phenyl]methyl]piperazin-1-yl]-N-(3,3,3-trifluoropropylsulfonyl)benzamide] | 0.0 | 0.0 |
